Experiment [1] concerns control sera (pooled serum of ten healthy LUMC hospital workers; commercial negative donor pooled serum from the Dutch bloodbank). The format is binding, human. Also on record: Binding of Control serum LUMC to linear peptides / Binding of Control serum Blood-bank to linear peptides / Binding of Control serum LUMC to looped peptides / Binding of Control Serum Blood-Bank to Looped peptides / Binding of Control serum LUMC to linear peptides of the protein M of SARS-CoV Urbani / Binding of Control serum Blood-bank to linear peptides of the protein M of SARS-CoV Urbani / Binding of Control serum LUMC to looped peptides of the protein M of SARS-CoV Urbani / Binding of Control Serum Blood-Bank to Looped peptides of the protein M of SARS-CoV Urbani: unit not given here.

Experiment [2] concerns rabbit serum obtained by immunizing a rabbit with the SARS-CoV strain Frankfurt 1. The format is binding. Also on record: Binding of a rabbit serum to linear peptides / Binding of a rabbit serum to looped peptides / Rabbit serum linear peptides / Rabbit serum looped peptides / Binding of a rabbit serum to linear peptides of protein N of SARS-CoV Urbani (Rabbit serum linear peptides) / Binding of a rabbit serum to looped/cyclic peptides of protein N of SARS-CoV Urbani (Rabbit serum looped peptides): unit not given here.

The test system of experiment [3] is antibodies in sera from SARS patients (sera 1a, 1b, 2, 6, 37, 62, London, SARS-yellow, SARS-green). The format is binding, human. Set-up: Binding of serum 6 to linear peptides of protein X1 of SARS-CoV Urbani / Binding of serum 37 to linear peptides of protein X1 of SARS-CoV Urbani / Binding of serum 6 to looped/cyclic peptide (PEPSCAN-ELISA) / Binding of serum 37 to looped/cyclic peptide (PEPSCAN-ELISA) / Binding of serum 37 to looped/cyclic peptides of protein X1 of SARS-CoV Urbani / Binding of serum 6 to linear peptides of protein X2 / Binding of serum 37 to linear peptides of protein X2 / Binding of serum 37 to looped/cyclic peptides of protein X2 of SARS-CoV Urbani / Binding of serum 6 to linear peptides of protein M of SARS-CoV Urbani / Binding of serum 37 to linear peptides of protein M of SARS-CoV Urbani / Binding of serum 6 to looped/cyclic peptides of protein M of SARS-CoV Urbani / Binding of serum 37 to looped/cyclic peptides of protein M of SARS-CoV Urbani / Binding of serum 6 to linear peptides of protein X3 of SARS-CoV Urbani / Binding of serum 37 to linear peptides of protein X3 of SARS-CoV Urbani / Binding of serum 37 to looped/cyclic peptides of protein X3 of SARS-CoV Urbani / Binding of serum 6 to linear peptides of protein X4 of SARS-CoV Urbani / Binding of serum 37 to linear peptides of protein X4 of SARS-CoV Urbani / Binding of serum 37 to looped/cyclic peptides of protein X4 of SARS-CoV Urbani / Binding of serum 6 to linear peptides of protein X5 of SARS-CoV Urbani / Binding of serum 37 to linear peptides of protein X5 of SARS-CoV Urbani / Binding of serum 37 to looped/cyclic peptides of protein X5 of SARS-CoV Urbani / Binding of serum 6 to linear peptides of protein N of SARS-CoV Urbani / Binding of serum 37 to linear peptides of protein N of SARS-CoV Urbani / Binding of serum 6 to linear peptide (PEPSCAN-ELISA) / Binding of serum 1a to looped/cyclic peptides of protein N of SARS-CoV Urbani / Binding of serum 1b to looped/cyclic peptides of protein N of SARS-CoV Urbani / Binding of serum 2 to looped/cyclic peptides of protein N of SARS-CoV Urbani / Binding of serum 6 to looped/cyclic peptides of protein N of SARS-CoV Urbani / Binding of serum 37 to looped/cyclic peptides of protein N of SARS-CoV Urbani / Binding of serum 62 to looped/cyclic peptides of protein N of SARS-CoV Urbani / Binding of serum London to looped/cyclic peptides of protein N of SARS-CoV Urbani / Binding of serum SARS-green to looped/cyclic peptides of protein N of SARS-CoV Urbani: unit not given here.

For SFNPETNILLNVPLR, in experiment [1], the “Binding of Control Serum Blood-Bank to Looped peptides of the protein M of SARS-CoV Urbani” value is on record as 1.0, the “Binding of Control serum Blood-bank to linear peptides of the protein M of SARS-CoV Urbani” value stood at 0.7, the “Binding of Control serum LUMC to linear peptides of the protein M of SARS-CoV Urbani” value is recorded as 0.4 and the “Binding of Control serum LUMC to looped peptides of the protein M of SARS-CoV Urbani” value is reported as 1.0. Also, in experiment [2], the “Rabbit serum linear peptides” value is on record as 0.5 and the “Rabbit serum looped peptides” value is on record as 0.4. Also, in experiment [3], the “Binding of serum 1a to linear peptides of protein M of SARS-CoV Urbani” value came to 0.7, the “Binding of serum 1a to looped/cyclic peptides of protein M of SARS-CoV Urbani” value is listed as 0.8, the “Binding of serum 1b to linear peptides of protein M of SARS-CoV Urbani” value was 0.4 and the “Binding of serum 1b to looped/cyclic peptides of protein M of SARS-CoV Urbani” value was 0.7. In experiment [3], the “Binding of serum 2 to linear peptides of protein M of SARS-CoV Urbani” value amounted to 0.5, the “Binding of serum 2 to looped/cyclic peptides of protein M of SARS-CoV Urbani” value was 0.9, the “Binding of serum 6 to linear peptides of protein M of SARS-CoV Urbani” value was found to be 0.3 and the “Binding of serum 6 to looped/cyclic peptides of protein M of SARS-CoV Urbani” value amounted to 0.8. Further, in experiment [3], the “Binding of serum 37 to linear peptides of protein M of SARS-CoV Urbani” value is listed as 0.7, the “Binding of serum 37 to looped/cyclic peptides of protein M of SARS-CoV Urbani” value amounted to 0.7, the “Binding of serum 62 to linear peptides of protein M of SARS-CoV Urbani” value is reported as 0.7 and the “Binding of serum 62 to looped/cyclic peptides of protein M of SARS-CoV Urbani” value stood at 0.8. Also, in experiment [3], the “Binding of serum London to linear peptides of protein M of SARS-CoV Urbani” value was found to be 0.3, the “Binding of serum London to looped/cyclic peptides of protein M of SARS-CoV Urbani” value is 0.3, the “Binding of serum SARS-green to linear peptides of protein M of SARS-CoV Urbani” value was 0.3 and the “Binding of serum SARS-green to looped/cyclic peptides of protein M of SARS-CoV Urbani” value came to 0.3. In addition, in experiment [3], the “Binding of serum SARS-yellow to linear peptides of protein M of SARS-CoV Urbani” value was found to be 0.1 and the “Binding of serum SARS-yellow to looped/cyclic peptides of protein M of SARS-CoV Urbani” value amounted to 1.0.

Regarding SLLKTHRMCKYTQST, in experiment [1], the “Binding of Control Serum Blood-Bank to Looped peptides” value was 0.4, the “Binding of Control serum Blood-bank to linear peptides” value is recorded as 0.9, the “Binding of Control serum LUMC to linear peptides” value is recorded as 0.8 and the “Binding of Control serum LUMC to looped peptides” value was 0.4. In addition, in experiment [2], the “Binding of a rabbit serum to linear peptides” value came out at 0.3 and the “Binding of a rabbit serum to looped peptides” value stood at 0.3. Further, in experiment [3], the “Binding of serum 1a to linear peptides of protein X2” value is 0.8, the “Binding of serum 1a to looped/cyclic peptides of protein X2 of SARS-CoV Urbani” value is 0.3, the “Binding of serum 1b to linear peptides of protein X2” value came out at 0.6 and the “Binding of serum 1b to looped/cyclic peptides of protein X2 of SARS-CoV Urbani” value amounted to 0.2. In experiment [3], the “Binding of serum 2 to linear peptides of protein X2” value is on record as 0.6, the “Binding of serum 2 to looped/cyclic peptides of protein X2 of SARS-CoV Urbani” value was found to be 0.1, the “Binding of serum 6 to linear peptides of protein X2” value is 0.6 and the “Binding of serum 6 to looped/cyclic peptides of protein X2 of SARS-CoV Urbani” value was 0.2. Besides, in experiment [3], the “Binding of serum 37 to linear peptides of protein X2” value was found to be 0.6, the “Binding of serum 37 to looped/cyclic peptides of protein X2 of SARS-CoV Urbani” value amounted to 0.3, the “Binding of serum 62 to linear peptides of protein X2” value stood at 0.7 and the “Binding of serum 62 to looped/cyclic peptides of protein X2 of SARS-CoV Urbani” value is recorded as 0.4. For the same sequence, in experiment [3], the “Binding of serum London to linear peptides of protein X2” value came to 0.6, the “Binding of serum London to looped/cyclic peptides of protein X2 of SARS-CoV Urbani” value was 0.2, the “Binding of serum SARS-green to linear peptides of protein X2” value is 0.7 and the “Binding of serum SARS-green to looped/cyclic peptides of protein X2 of SARS-CoV Urbani” value worked out at 0.1. For the same sequence, in experiment [3], the “Binding of serum SARS-yellow to linear peptides of protein X2” value came to 0.7 and the “Binding of serum SARS-yellow to looped/cyclic peptides of protein X2 of SARS-CoV Urbani” value came out at 0.2.

Regarding SLLKVTAFQHQNSKK, in experiment [1], the “Binding of Control Serum Blood-Bank to Looped peptides” value came to 0.4, the “Binding of Control serum Blood-bank to linear peptides” value turned out to be 0.2, the “Binding of Control serum LUMC to linear peptides” value amounted to 0.0 and the “Binding of Control serum LUMC to looped peptides” value was 0.3. In addition, in experiment [2], the “Binding of a rabbit serum to linear peptides” value came to 0.1 and the “Binding of a rabbit serum to looped peptides” value amounted to 0.3. Further, in experiment [3], the “Binding of serum 1a to linear peptides of protein X2” value is on record as 0.4, the “Binding of serum 1a to looped/cyclic peptides of protein X2 of SARS-CoV Urbani” value turned out to be 0.3, the “Binding of serum 1b to linear peptides of protein X2” value came to 0.0 and the “Binding of serum 1b to looped/cyclic peptides of protein X2 of SARS-CoV Urbani” value came to 0.2. Further, in experiment [3], the “Binding of serum 2 to linear peptides of protein X2” value stood at 0.1, the “Binding of serum 2 to looped/cyclic peptides of protein X2 of SARS-CoV Urbani” value was 0.1, the “Binding of serum 6 to linear peptides of protein X2” value amounted to 0.0 and the “Binding of serum 6 to looped/cyclic peptides of protein X2 of SARS-CoV Urbani” value is 0.1. Moreover, in experiment [3], the “Binding of serum 37 to linear peptides of protein X2” value worked out at 0.4, the “Binding of serum 37 to looped/cyclic peptides of protein X2 of SARS-CoV Urbani” value was 0.2, the “Binding of serum 62 to linear peptides of protein X2” value came out at 0.1 and the “Binding of serum 62 to looped/cyclic peptides of protein X2 of SARS-CoV Urbani” value is on record as 0.4. In experiment [3], the “Binding of serum London to linear peptides of protein X2” value was determined as 0.1, the “Binding of serum London to looped/cyclic peptides of protein X2 of SARS-CoV Urbani” value is on record as 0.1, the “Binding of serum SARS-green to linear peptides of protein X2” value was found to be 0.0 and the “Binding of serum SARS-green to looped/cyclic peptides of protein X2 of SARS-CoV Urbani” value is given as 0.1. In addition, in experiment [3], the “Binding of serum SARS-yellow to linear peptides of protein X2” value is reported as 0.0 and the “Binding of serum SARS-yellow to looped/cyclic peptides of protein X2 of SARS-CoV Urbani” value was 0.2.

Take SLSLHKLLQTLVLKM: in experiment [1], the “Binding of Control Serum Blood-Bank to Looped peptides” value worked out at 0.6, the “Binding of Control serum Blood-bank to linear peptides” value came out at 0.4, the “Binding of Control serum LUMC to linear peptides” value is 0.3 and the “Binding of Control serum LUMC to looped peptides” value came out at 0.7. For the same sequence, in experiment [2], the “Binding of a rabbit serum to linear peptides” value amounted to 0.1 and the “Binding of a rabbit serum to looped peptides” value came out at 0.4. For the same sequence, in experiment [3], the “Binding of serum 1a to linear peptides of protein X2” value stood at 0.6, the “Binding of serum 1a to looped/cyclic peptides of protein X2 of SARS-CoV Urbani” value is listed as 0.5, the “Binding of serum 1b to linear peptides of protein X2” value was found to be 0.5 and the “Binding of serum 1b to looped/cyclic peptides of protein X2 of SARS-CoV Urbani” value is 0.5. Also, in experiment [3], the “Binding of serum 2 to linear peptides of protein X2” value was determined as 0.3, the “Binding of serum 2 to looped/cyclic peptides of protein X2 of SARS-CoV Urbani” value stood at 0.3, the “Binding of serum 6 to linear peptides of protein X2” value was determined as 0.5 and the “Binding of serum 6 to looped/cyclic peptides of protein X2 of SARS-CoV Urbani” value is 0.9. Moreover, in experiment [3], the “Binding of serum 37 to linear peptides of protein X2” value was 0.4, the “Binding of serum 37 to looped/cyclic peptides of protein X2 of SARS-CoV Urbani” value amounted to 0.4, the “Binding of serum 62 to linear peptides of protein X2” value is 0.5 and the “Binding of serum 62 to looped/cyclic peptides of protein X2 of SARS-CoV Urbani” value is 0.5. In experiment [3], the “Binding of serum London to linear peptides of protein X2” value came out at 0.4, the “Binding of serum London to looped/cyclic peptides of protein X2 of SARS-CoV Urbani” value was 1.2, the “Binding of serum SARS-green to linear peptides of protein X2” value worked out at 0.6 and the “Binding of serum SARS-green to looped/cyclic peptides of protein X2 of SARS-CoV Urbani” value came out at 0.3. For the same sequence, in experiment [3], the “Binding of serum SARS-yellow to linear peptides of protein X2” value was found to be 0.3 and the “Binding of serum SARS-yellow to looped/cyclic peptides of protein X2 of SARS-CoV Urbani” value worked out at 0.7.

(Values after patent publication US20070128217A1 (priority 2003, published 2007).)
